Test results as given in patent publication US8486863B2, “Activators of lateral root formation” (VIB VZW, priority 2006, dated 2013).

What was measured:
auxin signaling mutants [1] = experiment: Effect of activators on lateral root density of auxin signaling mutants (Table 2); format: in vivo, Arabidopsis thaliana
Text: (§1) Afb1, Afb2, Afb3 and the triple mutant Tirlafb2afb3 were described by Dhamasiri et al. (2005). Tir1 was described by Ruegger et al., (1998); 1aa28 by Rogg et al., (2001); Tir7-1 by Ruegger et al., (1997); the Cyp79b2b3 double mutant by Ljung et al. (2005); the arf7arf19 double mutant by Fukaki et al., (2005); Aux1 by Bennett et al., (1996); Xbat32 by Nodzon et al., (2004), Axr1-12 by Timpte et al., (1995), Slr1 by Fukaki et al., 2002 and Axr3-1 by Collet et al., (2000) and the mutants were obtained from the publishing authors.
(§2) For phenotypic analysis, all mutants were grown on vertically oriented square plates (Greiner Labortechnik, Austria) with solid medium derived from standard MS medium. The plates were put in a growth chamber under continuous light (110 μE.m2.s1 photosynthetically active radiation, supplied by cool-white fluorescent tungsten tubes; Osram) at 22° C. Three days after germination, the mutant plants were transferred to medium supplemented with compounds and were left to grow for another 7 days. After this, root length and number of lateral roots were counted using ImageJ 1.34 freeware.

[2] = system: Wild-type Arabidopsis thaliana; experiment: Dose-response analysis of lateral root density and root length; format: in vivo
Experimental: FIG. 3: Dose-response analysis of class 1 (upper panel) and class 2 (lower panel) activators. Wild-type Arabidopsis thaliana seeds were germinated under standard conditions on agar plates. After 3 days of germination, seedlings were transferred to agar plates containing compound at different concentrations. Lateral root density was measured 10 days after germination. Bars represent standard errors.
FIG. 4: Dose-response analysis of A2, A11, A12, A14 and NAA. Wild-type Arabidopsis thaliana seeds were germinated under standard conditions on agar plates. After 3 days of germination, seedlings were transferred to agar plates containing compound at different concentrations and 1% DMSO. Plants transferred to agar plates containing 1% DMSO and no compound were used as controls. Lateral root density (left panels) and root length (right panels) were measured 10 days after germination. Bars represent standard errors.
For further phenotypic analysis, all plants were grown on vertically oriented square plates (Greiner Labortechnik, Austria) with solid medium derived from standard MS medium under the same conditions. 3 DAG plants were transferred to medium supplemented with compounds and were left to grow for another 7 days. After this, root length and number of LRs were counted using ImageJ 1.34 freeware.
As a subsequent step, the phenotypic effect of the 16 selected activators was determined in a dose-response analysis in which LR density (number of LRs per cm) was quantified (FIG. 3). Based upon potency and structure, two different classes of activators could be identified.

auxin signaling mutants [3] = experiment: Effect of A12 and NAA on lateral root density and root length of auxin signaling mutants (Table 1); format: in vivo, Arabidopsis thaliana; parameters: Root length: unit not given here; conditions: 30 uM
Text: as §1, §2
DMSO is used as negative control.

[4] = tir TM (Tir1afb2afb3 triple mutant)

Nc1ncc(Cc2cccc(Cl)c2Cl)s1 [A3, 5-(2,3-dichlorobenzyl)-1,3-thiazol-2-amine]
lateral root density (auxin signaling mutants [1]; Afb1-1, 3 uM): 17.77 LR/cm
lateral root density (auxin signaling mutants [1]; Afb2-1, 3 uM): 19.58 LR/cm
lateral root density (auxin signaling mutants [1]; Afb3-1, 3 uM): 17.45 LR/cm
lateral root density (auxin signaling mutants [1]; Arf7Arf19, 3 uM): 33.59 LR/cm
lateral root density (auxin signaling mutants [1]; Arf16, 3 uM): 11.32 LR/cm
lateral root density (auxin signaling mutants [1]; Arf17, 3 uM): 13.31 LR/cm
lateral root density (auxin signaling mutants [1]; Axrt-12, 3 uM): 15.77 LR/cm
lateral root density (auxin signaling mutants [1]; Cyp79, 3 uM): 21.24 LR/cm
lateral root density (auxin signaling mutants [1]; Iaa28-1, 3 uM): 13.96 LR/cm
lateral root density (auxin signaling mutants [1]; Tir1-1, 3 uM): 11.91 LR/cm
lateral root density (auxin signaling mutants [1]; Tir7-1, 3 uM): 26.15 LR/cm
lateral root density (auxin signaling mutants [1]; TirTM, 3 uM): 10.88 LR/cm
lateral root density (auxin signaling mutants [1]; Xbat32, 3 uM): 13.07 LR/cm

Clc1cccc(C=Nc2ccc(N3CCOCC3)cc2)c1Cl [A4, (2,3-dichlorobenzylidene)[4-(4-morpholinyl)phenyl]amine]
lateral root density (auxin signaling mutants [1]; Afb1-1, 3 uM): 2.69 LR/cm
lateral root density (auxin signaling mutants [1]; Afb2-1, 3 uM): 2.16 LR/cm
lateral root density (auxin signaling mutants [1]; Afb3-1, 3 uM): 2.55 LR/cm
lateral root density (auxin signaling mutants [1]; Arf7Arf19, 3 uM): 0.00 LR/cm
lateral root density (auxin signaling mutants [1]; Arf16, 3 uM): 1.99 LR/cm
lateral root density (auxin signaling mutants [1]; Arf17, 3 uM): 1.87 LR/cm
lateral root density (auxin signaling mutants [1]; Axrt-12, 3 uM): 1.64 LR/cm
lateral root density (auxin signaling mutants [1]; Cyp79, 3 uM): 2.64 LR/cm
lateral root density (auxin signaling mutants [1]; Iaa28-1, 3 uM): 0.00 LR/cm
lateral root density (auxin signaling mutants [1]; Tir1-1, 3 uM): 0.89 LR/cm
lateral root density (auxin signaling mutants [1]; Tir7-1, 3 uM): 3.69 LR/cm
lateral root density (auxin signaling mutants [1]; TirTM, 3 uM): 0.00 LR/cm
lateral root density (auxin signaling mutants [1]; Xbat32, 3 uM): 0.91 LR/cm

O=C(NN=Cc1cccc(Cl)c1Cl)c1ccc(O)c(O)c1 [A6, N′-(2,3-dichlorobenzylidene)-3,4-dihydroxybenzohydrazide]
lateral root density (auxin signaling mutants [1]; Afb1-1, 3 uM): 10.89 LR/cm
lateral root density (auxin signaling mutants [1]; Afb2-1, 3 uM): 7.34 LR/cm
lateral root density (auxin signaling mutants [1]; Afb3-1, 3 uM): 14.40 LR/cm
lateral root density (auxin signaling mutants [1]; Arf7Arf19, 3 uM): 0.00 LR/cm
lateral root density (auxin signaling mutants [1]; Arf16, 3 uM): 6.67 LR/cm
lateral root density (auxin signaling mutants [1]; Arf17, 3 uM): 7.24 LR/cm
lateral root density (auxin signaling mutants [1]; Axrt-12, 3 uM): 4.78 LR/cm
lateral root density (auxin signaling mutants [1]; Cyp79, 3 uM): 31.92 LR/cm
lateral root density (auxin signaling mutants [1]; Iaa28-1, 3 uM): 0.00 LR/cm
lateral root density (auxin signaling mutants [1]; Tir1-1, 3 uM): 0.57 LR/cm
lateral root density (auxin signaling mutants [1]; Tir7-1, 3 uM): 11.42 LR/cm
lateral root density (auxin signaling mutants [1]; TirTM, 3 uM): 0.00 LR/cm
lateral root density (auxin signaling mutants [1]; Xbat32, 3 uM): 10.08 LR/cm

Cc1c(N=Cc2cccc(Cl)c2Cl)cccc1[N+](=O)[O-] [A7, (2,3-dichlorobenzylidene)(2-methyl-3-nitrophenyl)amine]
lateral root density (auxin signaling mutants [1]; Afb1-1, 3 uM): 9.46 LR/cm
lateral root density (auxin signaling mutants [1]; Afb2-1, 3 uM): 2.69 LR/cm
lateral root density (auxin signaling mutants [1]; Afb3-1, 3 uM): 17.43 LR/cm
lateral root density (auxin signaling mutants [1]; Arf7Arf19, 3 uM): 0.00 LR/cm
lateral root density (auxin signaling mutants [1]; Arf16, 3 uM): 2.71 LR/cm
lateral root density (auxin signaling mutants [1]; Arf17, 3 uM): 3.40 LR/cm
lateral root density (auxin signaling mutants [1]; Axrt-12, 3 uM): 2.02 LR/cm
lateral root density (auxin signaling mutants [1]; Cyp79, 3 uM): 19.35 LR/cm
lateral root density (auxin signaling mutants [1]; Iaa28-1, 3 uM): 0.00 LR/cm
lateral root density (auxin signaling mutants [1]; Tir1-1, 3 uM): 1.01 LR/cm
lateral root density (auxin signaling mutants [1]; Tir7-1, 3 uM): 5.73 LR/cm
lateral root density (auxin signaling mutants [1]; TirTM, 3 uM): 0.00 LR/cm
lateral root density (auxin signaling mutants [1]; Xbat32, 3 uM): 1.23 LR/cm

Cc1ccccc1OCC(=O)NN=Cc1ccc(C(=O)O)cc1 [A9, 4-{2-[(2-methylphenoxy)acetyl]carbonohydrazonoyl}benzoic acid]
lateral root density (auxin signaling mutants [1]; Afb1-1, 30 uM): 13.57 LR/cm
lateral root density (auxin signaling mutants [1]; Afb2-1, 30 uM): 11.19 LR/cm
lateral root density (auxin signaling mutants [1]; Afb3-1, 30 uM): 16.77 LR/cm
lateral root density (auxin signaling mutants [1]; Arf7Arf19, 30 uM): 0.25 LR/cm
lateral root density (auxin signaling mutants [1]; Arf16, 30 uM): 6.67 LR/cm
lateral root density (auxin signaling mutants [1]; Arf17, 30 uM): 12.86 LR/cm
lateral root density (auxin signaling mutants [1]; Axrt-12, 30 uM): 6.09 LR/cm
lateral root density (auxin signaling mutants [1]; Cyp79, 30 uM): 13.29 LR/cm
lateral root density (auxin signaling mutants [1]; Iaa28-1, 30 uM): 12.33 LR/cm
lateral root density (auxin signaling mutants [1]; Tir1-1, 30 uM): 3.29 LR/cm
lateral root density (auxin signaling mutants [1]; Tir7-1, 30 uM): 17.91 LR/cm
lateral root density (auxin signaling mutants [1]; TirTM, 30 uM): 0.00 LR/cm
lateral root density (auxin signaling mutants [1]; Xbat32, 30 uM): 8.43 LR/cm

O=Cc1ccc(-c2cccc(C(F)(F)F)c2)o1 [A11var5]
effect on LR formation (LR density), structure-activity analysis ([2]; structural variants, FIG. 6-8): minimal substructure required to induce LR formation

NC(=S)NN=Cc1ccc(-c2cccc(C(F)(F)F)c2)o1 [A12, 5-[3-(trifluoromethyl)phenyl]-2-furaldehyde thiosemicarbazone]
lateral root density (auxin signaling mutants [1]; Afb1-1, 30 uM): 23.19 LR/cm
lateral root density (auxin signaling mutants [1]; Afb2-1, 30 uM): 10.44 LR/cm
lateral root density (auxin signaling mutants [1]; Afb3-1, 30 uM): 21.05 LR/cm
lateral root density (auxin signaling mutants [1]; Arf7Arf19, 30 uM): 0.94 LR/cm
lateral root density (auxin signaling mutants [1]; Arf16, 30 uM): 10.94 LR/cm
lateral root density (auxin signaling mutants [1]; Arf17, 30 uM): 15.09 LR/cm
lateral root density (auxin signaling mutants [1]; Axrt-12, 30 uM): 14.15 LR/cm
lateral root density (auxin signaling mutants [1]; Cyp79, 30 uM): 22.76 LR/cm
lateral root density (auxin signaling mutants [1]; Iaa28-1, 30 uM): 10.00 LR/cm
lateral root density (auxin signaling mutants [1]; Tir7-1, 30 uM): 27.42 LR/cm
lateral root density (auxin signaling mutants [1]; TirTM, 30 uM): 0.00 LR/cm
potency as activator of LR development (LR density) ([2]; dose-response, FIG. 3): most potent activators of class 2
LR density (auxin signaling mutants [3]; CDKB DN): 9.09
Root length (auxin signaling mutants [3]; CDKB DN): 1.56
Root length (auxin signaling mutants [3]; Col-0): 2.24
LR density (auxin signaling mutants [3]; Ws): 16.70
Root length (auxin signaling mutants [3]; Ws): 1.92
LR density (auxin signaling mutants [3]; Xbat32): 14.16
Root length (auxin signaling mutants [3]; Xbat32): 2.44
LR density (auxin signaling mutants [3]; afb1-1): 15.55
Root length (auxin signaling mutants [3]; afb1-1): 1.86
LR density (auxin signaling mutants [3]; afb2-1): 15.11
Root length (auxin signaling mutants [3]; afb2-1): 1.71
LR density (auxin signaling mutants [3]; afb3-1): 21.32
Root length (auxin signaling mutants [3]; afb3-1): 2.17
LR density (auxin signaling mutants [3]; arf7arf19 DM (double mutant)): 1.73
Root length (auxin signaling mutants [3]; arf7arf19 DM (double mutant)): 3.45
LR density (auxin signaling mutants [3]; aux1): 15.94
Root length (auxin signaling mutants [3]; aux1): 2.24
LR density (auxin signaling mutants [3]; axr1-12): 15.84
Root length (auxin signaling mutants [3]; axr1-12): 1.62
LR density (auxin signaling mutants [3]; axr5-1): 14.10
Root length (auxin signaling mutants [3]; axr5-1): 3.40
LR density (auxin signaling mutants [3]; cyp79b2-3 DM (double mutant)): 17.30
Root length (auxin signaling mutants [3]; cyp79b2-3 DM (double mutant)): 2.26
LR density (auxin signaling mutants [3]; iaa28-1): 8.85
Root length (auxin signaling mutants [3]; iaa28-1): 3.39
LR density (auxin signaling mutants [3]; lax3): 15.27
Root length (auxin signaling mutants [3]; lax3): 2.48
LR density (auxin signaling mutants [3]; msg2-1): 27.49
Root length (auxin signaling mutants [3]; msg2-1): 1.58
LR density (auxin signaling mutants [3]; slr-1): 0.00
Root length (auxin signaling mutants [3]; slr-1): 1.90
LR density (auxin signaling mutants [3]; tir1-1): 13.38
Root length (auxin signaling mutants [3]; tir1-1): 2.34
LR density (auxin signaling mutants [3]; tir7-1): 17.30
Root length (auxin signaling mutants [3]; tir7-1): 1.52
LR density (auxin signaling mutants [3]; [4]): 4.82
Root length (auxin signaling mutants [3]; [4]): 2.60
